How the values were obtained:
ragweed [1] = experiment: Test C postemergence; type: in vivo, Ambrosia artemisiifolia; conditions: 10 days, 0 to 100 scale (0 no effect, 100 complete control)
Procedure, shortened: (§1)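 Seeds sown in loam soil–sand blend received a directed preemergence soil spray of test chemical in non-phytotoxic solvent with surfactant; postemergence plants (2–10 cm, one- to two-leaf stage) were sprayed with the same formulation. Greenhouse-held 10 days, then visually rated for injury versus untreated controls, 0 (no effect) to 100 (complete control).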

corn [2] = experiment: Test C preemergence; type: in vivo, Zea mays
Procedure, shortened: as §1

sedge, umbrella = experiment: Test D flooded paddy test; type: in vivo, Cyperus difformis; conditions: 250 g ai/ha, applied to paddy water, visual rating after 13 to 14 days, scale 0 to 100 (0 no effect, 100 complete control)
Procedure, shortened: (§2)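 Seedlings reached the 2-leaf stage, then pots were flooded to 3 cm over the soil surface. Compound was applied into the water, depth was maintained, and plants stayed in the greenhouse 13 to 14 days before visual scoring (0–100) relative to controls.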

wheat [3] = experiment: Test C postemergence; type: in vivo, Triticum aestivum; conditions: 10 days, 0 to 100 scale (0 no effect, 100 complete control)
Procedure, shortened: as §1

blackgrass [4] = experiment: Test C postemergence; type: in vivo, Alopecurus myosuroides; conditions: 10 days, 0 to 100 scale (0 no effect, 100 complete control)
Procedure, shortened: as §1

oat, wild [5] = experiment: Test C preemergence; type: in vivo, Avena fatua
Procedure, shortened: as §1

oat, wild [6] = experiment: Test C postemergence; type: in vivo, Avena fatua; conditions: 10 days, 0 to 100 scale (0 no effect, 100 complete control)
Procedure, shortened: as §1

pigweed, palmer [7] = experiment: Test C preemergence; type: in vivo, Amaranthus palmeri
Procedure, shortened: as §1

rice = experiment: Test D flooded paddy test; type: in vivo, Oryza sativa; conditions: 250 g ai/ha, applied to paddy water, visual rating after 13 to 14 days, scale 0 to 100 (0 no effect, 100 complete control)
Procedure, shortened: as §2

ryegrass, Italian [8] = experiment: Test C preemergence; type: in vivo, Lolium multiflorum
Procedure, shortened: as §1

barnyardgrass [9] = experiment: Test C postemergence; type: in vivo, Echinochloa crusgalli; conditions: 10 days, 0 to 100 scale (0 no effect, 100 complete control)
Procedure, shortened: as §1

corn [10] = experiment: Test C postemergence; type: in vivo, Zea mays; conditions: 10 days, 0 to 100 scale (0 no effect, 100 complete control)
Procedure, shortened: as §1

kochia [11] = experiment: Test C postemergence; type: in vivo, Bassia scoparia; conditions: 10 days, 0 to 100 scale (0 no effect, 100 complete control)
Procedure, shortened: as §1

soybean [12] = experiment: Test C postemergence; type: in vivo, Glycine max; conditions: 10 days, 0 to 100 scale (0 no effect, 100 complete control)
Procedure, shortened: as §1

ducksalad = experiment: Test D flooded paddy test; type: in vivo, Heteranthera limosa; conditions: 250 g ai/ha, applied to paddy water, visual rating after 13 to 14 days, scale 0 to 100 (0 no effect, 100 complete control)
Procedure, shortened: as §2

wheat [13] = experiment: Test C preemergence; type: in vivo, Triticum aestivum
Procedure, shortened: as §1

barnyardgrass [14] = experiment: Test C preemergence; type: in vivo, Echinochloa crusgalli
Procedure, shortened: as §1

barnyardgrass [15] = experiment: Test D flooded paddy test; type: in vivo, Echinochloa crus-galli; conditions: 250 g ai/ha, applied to paddy water, visual rating after 13 to 14 days, scale 0 to 100 (0 no effect, 100 complete control)
Procedure, shortened: as §2

galium = experiment: Test C postemergence; type: in vivo, Galium aparine; conditions: 10 days, 0 to 100 scale (0 no effect, 100 complete control)
Procedure, shortened: as §1

green foxtail [16] = experiment: Test C postemergence; type: in vivo, Setaria viridis; conditions: 10 days, 0 to 100 scale (0 no effect, 100 complete control)
Procedure, shortened: as §1

horseweed = experiment: Test C postemergence; type: in vivo, Erigeron canadensis; conditions: 10 days, 0 to 100 scale (0 no effect, 100 complete control)
Procedure, shortened: as §1

soybean [17] = experiment: Test C preemergence; type: in vivo, Glycine max
Procedure, shortened: as §1

green foxtail [18] = experiment: Test C preemergence; type: in vivo, Setaria viridis
Procedure, shortened: as §1

blackgrass [19] = experiment: Test C preemergence; type: in vivo, Alopecurus myosuroides
Procedure, shortened: as §1

ryegrass, Italian [20] = experiment: Test C postemergence; type: in vivo, Lolium multiflorum; conditions: 10 days, 0 to 100 scale (0 no effect, 100 complete control)
Procedure, shortened: as §1

ragweed [21] = experiment: Test C preemergence; type: in vivo, Ambrosia artemisiifolia
Procedure, shortened: as §1

kochia [22] = experiment: Test C preemergence; type: in vivo, Bassia scoparia
Procedure, shortened: as §1

pigweed, palmer [23] = experiment: Test C postemergence; type: in vivo, Amaranthus palmeri; conditions: 10 days, 0 to 100 scale (0 no effect, 100 complete control)
Procedure, shortened: as §1

[24] = 500 g ai/ha, preemergence, 0 to 100 scale (0 no effect, 100 complete control)
[25] = Preemergence, 125 g ai/ha, 0 to 100 scale, 0 no effect, 100 complete control

## CC(=O)N(C)c1ncn(-c2cccc(C(=O)N3C[C@H](C)Oc4c(C)cccc43)c2)n1 [Compound 336]
Ragweed [1]; 500 g ai/ha, postemergence
  Plant response rating, Ragweed: 10
Ragweed [1]; Postemergence, 125 g ai/ha
  Plant response rating, Ragweed: 20
Corn [2]; [24]
  Corn plant response rating: 20
Corn [2]; [25]
  Plant response rating, Corn: 0
sedge, umbrella
  Plant response rating, Sedge, Umbrella (Flood): 0
Wheat [3]; 500 g ai/ha, postemergence
  Plant response rating, Wheat: 40
Wheat [3]; Postemergence, 125 g ai/ha
  Plant response rating, Wheat: 10
Blackgrass [4]; 500 g ai/ha, postemergence
  Plant response rating, Blackgrass: 90
Blackgrass [4]; Postemergence, 125 g ai/ha
  Plant response rating, Blackgrass: 30
oat, wild [5]; [24]
  Oat, Wild plant response rating: 30
oat, wild [5]; [25]
  Plant response rating, Oat, Wild: 0
oat, wild [6]; 500 g ai/ha, postemergence
  Plant response rating, Oat, Wild: 70
oat, wild [6]; Postemergence, 125 g ai/ha
  Plant response rating, Oat, Wild: 10
pigweed, palmer [7]; [24]
  Pigweed, Palmer plant response rating: 90
pigweed, palmer [7]; [25]
  Plant response rating, Pigweed, Palmer: 10
rice
  Plant response rating, Rice (Flood): 0
ryegrass, Italian [8]; [24]
  Ryegrass, Italian plant response rating: 90
ryegrass, Italian [8]; [25]
  Plant response rating, Ryegrass, Italian: 70
Barnyardgrass [9]; 500 g ai/ha, postemergence
  Plant response rating, Barnyardgrass: 60
Barnyardgrass [9]; Postemergence, 125 g ai/ha
  Plant response rating, Barnyardgrass: 10
Corn [10]; 500 g ai/ha, postemergence
  Plant response rating, Corn: 60
Corn [10]; Postemergence, 125 g ai/ha
  Plant response rating, Corn: 20
Kochia [11]; 500 g ai/ha, postemergence
  Plant response rating, Kochia: 80
Kochia [11]; Postemergence, 125 g ai/ha
  Plant response rating, Kochia: 60
Soybean [12]; 500 g ai/ha, postemergence
  Plant response rating, Soybean: 100
Soybean [12]; Postemergence, 125 g ai/ha
  Plant response rating, Soybean: 80
ducksalad
  Plant response rating, Ducksalad (Flood): 25
Wheat [13]; [24]
  Wheat plant response rating: 40
Wheat [13]; [25]
  Plant response rating, Wheat: 0
Barnyardgrass [14]; [24]
  Barnyardgrass plant response rating: 100
Barnyardgrass [14]; [25]
  Plant response rating, Barnyardgrass: 20
Barnyardgrass [15]
  Plant response rating, Barnyardgrass (Flood): 0
galium; 500 g ai/ha, postemergence
  Plant response rating, Galium: 90
galium; Postemergence, 125 g ai/ha
  Plant response rating, Galium: 60
Green foxtail [16]; 500 g ai/ha, postemergence
  Plant response rating, Foxtail, Green: 60
Green foxtail [16]; Postemergence, 125 g ai/ha
  Plant response rating, Foxtail, Green: 20
horseweed; 500 g ai/ha, postemergence
  Plant response rating, Horseweed: 0
horseweed; Postemergence, 125 g ai/ha
  Plant response rating, Horseweed: 0
Soybean [17]; [24]
  Soybean plant response rating: 30
Soybean [17]; [25]
  Plant response rating, Soybean: 0
Green foxtail [18]; [24]
  Foxtail, Green plant response rating: 100
Green foxtail [18]; [25]
  Plant response rating, Foxtail, Green: 80
Blackgrass [19]; [24]
  Blackgrass plant response rating: 40
Blackgrass [19]; [25]
  Plant response rating, Blackgrass: 30
ryegrass, Italian [20]; 500 g ai/ha, postemergence
  Plant response rating, Ryegrass, Italian: 80
ryegrass, Italian [20]; Postemergence, 125 g ai/ha
  Plant response rating, Ryegrass, Italian: 50
Ragweed [21]; [24]
  Ragweed plant response rating: 0
Ragweed [21]; [25]
  Plant response rating, Ragweed: 0
Kochia [22]; [24]
  Kochia plant response rating: 90
Kochia [22]; [25]
  Plant response rating, Kochia: 0
pigweed, palmer [23]; 500 g ai/ha, postemergence
  Plant response rating, Pigweed, Palmer: 70
pigweed, palmer [23]; Postemergence, 125 g ai/ha
  Plant response rating, Pigweed, Palmer: 20

Source: patent US20260262643A1, “HERBICIDAL BENZOXAZINES” (FMC CORPORATION, priority 2022, published 2026)
